Test results published in patent publication US12357711B2, “PSMA binding dual mode radiotracer and therapeutic” (Technische Universität München, priority 2019, dated 2025).

Tested on: SCID mice
Experiment: Preclinical dosimetry from biodistribution in mice, extrapolated to 70-kg Standard Adult (OLINDA/EXM 1.0)
Format: in vivo
Conditions: 1.0 h bladder voiding interval
Procedure: 3-5 mice were injected per timepoint with a mean 25.6±3.6 MBq of 18F-rhPSMA-7 and 28.5±4.8 MBq of 18F-rhPSMA-7.3, respectively. Mice, severe combined immunodeficiency (SCID) were used for the experiments.
Mice were sacrificed at the following timepoints: • ^18F-rhPSMA-7: 10, 20, 40, 60, 120 and 180 minutes after administration. • ^18F-rhPSMA-7.3: 10, 60, 120, 180 and 300 minutes after administration.
Urine, blood, heart, lung, spleen, pancreas, liver, stomach (emptied), small intestine (emptied), large intestine (emptied), kidneys, bladder, testis, fat, muscle (partial, femoral), femur, tail and brain. Urine was collected with a pipette in the CO2 gas chamber. In case of missing urination in the chamber the bladder was aspirated with an insulin syringe. Blood was withdrawn instantly after sacrifice with an insulin syringe from the heart. All other tissues and organs were dissected and transferred directly in plastic containers.
The counting rates of measurement samples were automatically corrected for decay. The radioactivity distribution ratios (unit: percentage of the injected dose (% ID) in the measurement samples were determined using the equation below. The sum of the counting rates from all measurement samples obtained from one mouse was designated as the counting rate for administrated radioactivity.
The radioactivity distribution ratio per unit weight of the measurement sample (unit: % ID/g) excluding urine and feces samples was determined by using the equation below. The weight of the measurement sample was determined by subtraction of the empty measurement container from the container including the sample.
For consistency of statistical calculations for each radiotracer the same number of time-points for ^18F-rhPSMA-7 and ^18F-rhPSMA-7.3 was used. Therefore, for ^18F-rhPSMA-7 the 10 min and 20 min time points were combined creating a 15 min endpoint.
The time-integral of activity for the accumulation in the significant source organs (AUCs) were generated both with numerical integration and physical decay according to J Juan et al., Journal of Pharmaceutical Sciences, 1993, 82:762-763.
In brief, to calculate a human dosimetry from the biodistribution in the mice, an extrapolation was necessary to account for the differences between the animals and humans. Normal-organ radiation doses were estimated for the 70-kg Standard Adult anatomic model using time-depending organ activity concentrations (in percent of the injected dose per gram, % ID/g) and total-body activities measured in the biodistribution studies in mice.
Tissue activity concentrations in mice were converted to tissue fractional activities in the 70-kg Standard Adult using the relative fractional organ masses in the Standard Adult and the “standard” 25-gramm mouse. Time-dependent total-body activity was fit to an exponential function and the difference between the injected activity and the total-body activity was assumed to be excreted to the urine because activity concentrations in the liver and GI tracer were low at all time points studied.
Organ residence time was calculated by numerical integration using the trapezoidal rule and the rest-of-body ^18F residence times was calculated as the difference between the total-body residence time and the sum of the organ and urine residence times. The bladder contents residence time was estimated using the dynamic voiding model in the OLINDA/EXM 1.0 dosimetry software. Finally, the Standard Adult mean organ dose equivalents (in mSv/MBq) and effective dose (also in mSv/MBq) were then calculated using OLIN DA/EXM 1.0.
Final calculation of radiation absorbed dose and dosimetry from biodistribution in mice: The tissues or organs in which a significant accumulation of radioactivity occurs (i.e., source organ) were kidney, spleen, lung, liver and heart. With respect to activity accumulation and clearance, a rapid clearance from blood and clearance to urine but relatively slow build-up in kidney was found.

[^19F][^natGa]D/L-Dap-R/S-DOTAGA-rhPSMA7 [rhPSMA7-rac]
Adrenals ED Cont.: 3.79E−05 mSv/MBq | Adrenals EDE Cont.: 0.00E000 mSv/MBq | Adrenals dose Alpha: 0.00E000 mSv/MBq | Adrenals dose Beta: 1.95E−03 mSv/MBq | Adrenals dose Photon: 5.64E−03 mSv/MBq | Adrenals dose Total: 7.59E−03 mSv/MBq | Brain ED Cont.: 2.24E−05 mSv/MBq | Brain EDE Cont.: 0.00E000 mSv/MBq | Brain dose Alpha: 0.00E000 mSv/MBq | Brain dose Beta: 1.95E−03 mSv/MBq | Brain dose Photon: 2.54E−03 mSv/MBq | Brain dose Total: 4.49E−03 mSv/MBq | Breasts ED Cont.: 2.10E−04 mSv/MBq | Breasts EDE Cont.: 6.30E−04 mSv/MBq | Breasts dose Alpha: 0.00E000 mSv/MBq | Breasts dose Beta: 1.95E−03 mSv/MBq | Breasts dose Photon: 2.25E−03 mSv/MBq | Breasts dose Total: 4.20E−03 mSv/MBq | Gallbladder Wall ED Cont.: 0.00E000 mSv/MBq | Gallbladder Wall EDE Cont.: 0.00E000 mSv/MBq | Gallbladder Wall dose Alpha: 0.00E000 mSv/MBq | Gallbladder Wall dose Beta: 1.95E−03 mSv/MBq | Gallbladder Wall dose Photon: 4.96E−03 mSv/MBq | Gallbladder Wall dose Total: 6.91E−03 mSv/MBq | Heart Wall ED Cont.: 0.00E000 mSv/MBq | Heart Wall EDE Cont.: 0.00E000 mSv/MBq | Heart Wall dose Alpha: 0.00E000 mSv/MBq | Heart Wall dose Beta: 8.82E−04 mSv/MBq | Heart Wall dose Photon: 3.48E−03 mSv/MBq | Heart Wall dose Total: 4.36E−03 mSv/MBq | Kidneys ED Cont.: 3.23E−04 mSv/MBq | Kidneys EDE Cont.: 3.88E−03 mSv/MBq | Kidneys dose Alpha: 0.00E000 mSv/MBq | Kidneys dose Beta: 4.70E−02 mSv/MBq | Kidneys dose Photon: 1.76E−02 mSv/MBq | Kidneys dose Total: 6.47E−02 mSv/MBq | LLI Wall ED Cont.: 1.10E−03 mSv/MBq | LLI Wall EDE Cont.: 5.52E−04 mSv/MBq | LLI Wall dose Alpha: 0.00E000 mSv/MBq | LLI Wall dose Beta: 1.95E−03 mSv/MBq | LLI Wall dose Photon: 7.25E−03 mSv/MBq | LLI Wall dose Total: 9.20E−03 mSv/MBq | Liver ED Cont.: 2.01E−04 mSv/MBq | Liver EDE Cont.: 0.00E000 mSv/MBq | Liver dose Alpha: 0.00E000 mSv/MBq | Liver dose Beta: 6.35E−04 mSv/MBq | Liver dose Photon: 3.39E−03 mSv/MBq | Liver dose Total: 4.02E−03 mSv/MBq | Lungs ED Cont.: 5.11E−04 mSv/MBq | Lungs EDE Cont.: 5.11E−04 mSv/MBq | Lungs dose Alpha: 0.00E000 mSv/MBq | Lungs dose Beta: 1.25E−03 mSv/MBq | Lungs dose Photon: 3.01E−03 mSv/MBq | Lungs dose Total: 4.26E−03 mSv/MBq | Muscle ED Cont.: 2.98E−05 mSv/MBq | Muscle EDE Cont.: 0.00E000 mSv/MBq | Muscle dose Alpha: 0.00E000 mSv/MBq | Muscle dose Beta: 1.95E−03 mSv/MBq | Muscle dose Photon: 4.01E−03 mSv/MBq | Muscle dose Total: 5.96E−03 mSv/MBq | Osteogenic Cells ED Cont.: 8.27E−05 mSv/MBq | Osteogenic Cells EDE Cont.: 2.48E−04 mSv/MBq | Osteogenic Cells dose Alpha: 0.00E000 mSv/MBq | Osteogenic Cells dose Beta: 4.18E−03 mSv/MBq | Osteogenic Cells dose Photon: 4.09E−03 mSv/MBq | Osteogenic Cells dose Total: 8.27E−03 mSv/MBq | Ovaries ED Cont.: 1.83E−03 mSv/MBq | Ovaries EDE Cont.: 2.29E−03 mSv/MBq | Ovaries dose Alpha: 0.00E000 mSv/MBq | Ovaries dose Beta: 1.95E−03 mSv/MBq | Ovaries dose Photon: 7.21E−03 mSv/MBq | Ovaries dose Total: 9.16E−03 mSv/MBq | Pancreas ED Cont.: 3.90E−05 mSv/MBq | Pancreas EDE Cont.: 0.00E000 mSv/MBq | Pancreas dose Alpha: 0.00E000 mSv/MBq | Pancreas dose Beta: 1.95E−03 mSv/MBq | Pancreas dose Photon: 5.86E−03 mSv/MBq | Pancreas dose Total: 7.80E−03 mSv/MBq | Red Marrow ED Cont.: 6.82E−04 mSv/MBq | Red Marrow EDE Cont.: 6.82E−04 mSv/MBq | Red Marrow dose Alpha: 0.00E000 mSv/MBq | Red Marrow dose Beta: 1.39E−03 mSv/MBq | Red Marrow dose Photon: 4.29E−03 mSv/MBq | Red Marrow dose Total: 5.68E−03 mSv/MBq | Skin ED Cont.: 4.32E−05 mSv/MBq | Skin EDE Cont.: 0.00E000 mSv/MBq | Skin dose Alpha: 0.00E000 mSv/MBq | Skin dose Beta: 1.95E−03 mSv/MBq | Skin dose Photon: 2.38E−03 mSv/MBq | Skin dose Total: 4.32E−03 mSv/MBq | Small Intestine ED Cont.: 3.87E−05 mSv/MBq | Small Intestine EDE Cont.: 0.00E000 mSv/MBq | Small Intestine dose Alpha: 0.00E000 mSv/MBq | Small Intestine dose Beta: 1.95E−03 mSv/MBq | Small Intestine dose Photon: 5.79E−03 mSv/MBq | Small Intestine dose Total: 7.73E−03 mSv/MBq | Spleen ED Cont.: 1.29E−04 mSv/MBq | Spleen EDE Cont.: 1.55E−03 mSv/MBq | Spleen dose Alpha: 0.00E000 mSv/MBq | Spleen dose Beta: 1.59E−02 mSv/MBq | Spleen dose Photon: 9.90E−03 mSv/MBq | Spleen dose Total: 2.58E−02 mSv/MBq | Stomach Wall ED Cont.: 7.98E−04 mSv/MBq | Stomach Wall EDE Cont.: 0.00E000 mSv/MBq | Stomach Wall dose Alpha: 0.00E000 mSv/MBq | Stomach Wall dose Beta: 1.95E−03 mSv/MBq | Stomach Wall dose Photon: 4.70E−03 mSv/MBq | Stomach Wall dose Total: 6.65E−03 mSv/MBq | Testes ED Cont.: 0.00E000 mSv/MBq | Testes EDE Cont.: 0.00E000 mSv/MBq | Testes dose Alpha: 0.00E000 mSv/MBq | Testes dose Beta: 1.95E−03 mSv/MBq | Testes dose Photon: 5.09E−03 mSv/MBq | Testes dose Total: 7.03E−03 mSv/MBq | Thymus ED Cont.: 2.57E−05 mSv/MBq | Thymus EDE Cont.: 0.00E000 mSv/MBq | Thymus dose Alpha: 0.00E000 mSv/MBq | Thymus dose Beta: 1.95E−03 mSv/MBq | Thymus dose Photon: 3.20E−03 mSv/MBq | Thymus dose Total: 5.15E−03 mSv/MBq | Thyroid ED Cont.: 2.59E−04 mSv/MBq | Thyroid EDE Cont.: 1.55E−04 mSv/MBq | Thyroid dose Alpha: 0.00E000 mSv/MBq | Thyroid dose Beta: 1.95E−03 mSv/MBq | Thyroid dose Photon: 3.23E−03 mSv/MBq | Thyroid dose Total: 5.17E−03 mSv/MBq | Total Body ED Cont.: 0.00E000 mSv/MBq | Total Body EDE Cont.: 0.00E000 mSv/MBq | Total Body dose Alpha: 0.00E000 mSv/MBq | Total Body dose Beta: 2.27E−03 mSv/MBq | Total Body dose Photon: 3.93E−03 mSv/MBq | Total Body dose Total: 6.19E−03 mSv/MBq | ULI Wall ED Cont.: 3.64E−05 mSv/MBq | ULI Wall EDE Cont.: 0.00E000 mSv/MBq | ULI Wall dose Alpha: 0.00E000 mSv/MBq | ULI Wall dose Beta: 1.95E−03 mSv/MBq | ULI Wall dose Photon: 5.33E−03 mSv/MBq | ULI Wall dose Total: 7.27E−03 mSv/MBq | Urinary Bladder Wall ED Cont.: 5.76E−03 mSv/MBq | Urinary Bladder Wall EDE Cont.: 6.92E−03 mSv/MBq | Urinary Bladder Wall dose Alpha: 0.00E000 mSv/MBq | Urinary Bladder Wall dose Beta: 7.87E−02 mSv/MBq | Urinary Bladder Wall dose Photon: 3.66E−02 mSv/MBq | Urinary Bladder Wall dose Total: 1.15 E−01 mSv/MBq | Uterus ED Cont.: 6.56E−05 mSv/MBq | Uterus EDE Cont.: 7.87E−04 mSv/MBq | Uterus dose Alpha: 0.00E000 mSv/MBq | Uterus dose Beta: 1.95E−03 mSv/MBq | Uterus dose Photon: 1.12E−02 mSv/MBq | Uterus dose Total: 1.31E−02 mSv/MBq
